Literature values, collected in patent US20230233180A1, “Emergency Ultrasound Gel” (priority 2022, published 2023).
Converted amounts (≈) assume the structure as drawn. Read-outs that look alike come from different tables or passages of the source.

Tests used:
[1] = test system: Candida albicans
[2] = test system: wide range of bacteria; details: bactericidal
[3] = test system: wide variety of yeast and fungi

SMILES | MIC ([1]; Canddia albicans M9) [µg/mL] | MIC ([1]; Candida albicans 10231) [µg/mL] | MIC ([1]; Candida albicans H33) [µg/mL] | MIC ([1]; Candida albicans H37) [µg/mL] | MIC ([1]; Candida albicans H38) [µg/mL] | MIC ([1]; Candida albicans M28) [µg/mL] | MIC ([1]; Candida albicans M36) [µg/mL] | MIC ([1]; Candida albicans SCO) [µg/mL] | MIC ([1]; Candida albicans Ser5) [µg/mL] | MIC ([1]; Candida. albicans H65) [µg/mL] | concentration that kills a wide range of bacteria [2] [%] | antifungal effect [3]
CCCCN1CCCCC1C(=O)Nc1c(C)cccc1C (stereo not shown) [Bupivacaine] | 1300 (≈ 4.51 mM) | 2500 (≈ 8.67 mM) | 2500 (≈ 8.67 mM) | 5000 (≈ 17.3 mM) | 2500 (≈ 8.67 mM) | 1300 (≈ 4.51 mM) | 2500 (≈ 8.67 mM) | 1300 (≈ 4.51 mM) | 2500 (≈ 8.67 mM) | 1300 (≈ 4.51 mM) |  | 
O=C([O-])CNCO.[Na+] [Sodium hydroxymethylglycinate] |  |  |  |  |  |  |  |  |  |  | 0.09 | does not have strong antifungal effect
CCN(CC)CC(=O)Nc1c(C)cccc1C [Lidocaine] | 2500 (≈ 10.7 mM) | 5000 (≈ 21.3 mM) | 5000 (≈ 21.3 mM) | 10000 (≈ 42.7 mM) | 5000 (≈ 21.3 mM) | 2500 (≈ 10.7 mM) | 5000 (≈ 21.3 mM) | 2500 (≈ 10.7 mM) | 5000 (≈ 21.3 mM) | 2500 (≈ 10.7 mM) |  | 
